Measurements reported in PMC8041193 (PLoS ONE, 2021).
Ends that are not written are not given here.

Tests used:
[1] = Non compartmental pharmacokinetic analysis of LA in porcine intestinal fluid; format: in vivo; details: pig intestinal fluid, oral LA 1 mg total (~0.05 mg/kg)
Protocol: Non compartmental pharmacokinetic analyses of LA in the intestinal fluid was performed using commercially available software (Phoenix® WinNonlin® Software version 8.3, Certara, Princeton, NJ). The pharmacokinetic parameters estimated for LA in intestinal fluid after oral administration included the elimination rate constant (λz), elimination half life (HLλz), the area under the curve from time zero to the last time point (AUClast), the maximum concentration (Cmax), time to maximum concentration (Tmax), the mean drug residence time from time zero to the last time point (MRTlast), which were calculated using the linear log trapezoidal method.

[2] = cited from earlier work
From the text: In vitro dissolution is the standard method used in the pharmaceutical industry to assess drug release from solid oral dosage forms and to predict the release profile in the GI tract by simulating the GI environment with appropriate buffer media. In vivo/ in vitro correlation analysis (IVIVC) was specifically designed to assess whether in vitro predictions match in vivo drug behavior. However, in this study IVIVC could not be performed for several reasons, including the lack of an injectable formulation, an immediate release and other multiple other extended release formulations and the ...

[3] = LA concentration in porcine intestinal fluid collected via in vivo ultrafiltration probes, UPLC-MS/MS; details: pig; for level at time molar at 1 h / level at time molar at 2 h / level at time molar at 3 h / level at time molar at 4 h: female, Yorkshire cross, po, 1 mg; for Concentration of LA fragments in duodenal and jejunal samples: oral 1 mg LA, fragments detected, all concentrations below the LLOQ, UPLC-MS/MS;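 on all read-outs here: pigs aged 6–8 weeks and weighing 15–20 kg, intestinal fluid sampled through surgically implanted ultrafiltration probes whose placement was checked post mortem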
Protocol: Three female Yorkshire cross pigs weighing between 15–20 kg and 6–8 weeks of age were used in this study. […] All pigs were considered healthy on the basis of physical exams, which were performed upon delivery and after a minimum of 3 days’ acclimatization. The animals were housed individually in stainless steel pens to allow comprehensive observation of changes to the animal’s behavior, feed consumption, and volume or character of excreta. While housed in pens, each animal had free access to water, and commercial pig pelleted feed was provided twice daily.
Pigs were sedated with injection of ketamine (11 mg/kg, IM; Vedco) and xylazine (0.25 mg/kg, IM; Akorn Animal Health). Intravenous administration of buprenorphine (0.04 mg/kg; Par Pharmaceutical) and intramuscular administration of flunixin meglumine (2.2 mg/kg; Norbrook) and ceftiofur sodium (Excede for Swine, 8mg/kg; Med Pharmex Inc) were given for analgesia and infection prophylaxis, respectively. Pigs were intubated and maintained under general anesthesia using isoflurane delivered in 100% oxygen during the surgery. The abdomen was approached via midline laparotomy, and the pylorus was located. The duodenum was traced from the pylorus to an accessible point on the left side of the abdomen approximately 15–18 cm distal to the pylorus (Fig 2). The intestine was lifted and an incision was made using a #11 scalpel blade, piercing the anti-mesenteric intestinal wall into the lumen. A guide needle was used to introduce the UF probe into the duodenum threading the probe proximally toward the pylorus. The guide needle was subsequently removed, taking care to leave the UF probe in place [20]. The three loops of the UF probe remained within the intestine, and each probe was secured in the intestine by using a Halstead pattern suture around the probe, followed by a finger trap suture pattern using 3–0 Vicryl (Henry Schein). The nonpermeable connection tubing of the UF probe was extended to the lateral body wall, paramedian to the incision, and retrieved through a guide needle in order to exteriorize the tubing. The tubing was secured outside the animal by suturing the tubing to the skin using 3–0 nylon suture (Fig 3). The tubing was attached to a needle inserted into a vacutainer for sample collection during the remainder of the experiment. A second UF probe was placed into the jejunum 20 cm distal to the duodenum using the same methodology (Fig 2). The abdomen was closed in a routine manner. The pigs were monitored for assessment of pain each day of the experiment and given buprenorphine as an analgesic medication if necessary.
The formulated beads were weighed and placed into gelatin capsules prior to dosing.

[4] = distal duodenum, mean of 3 dose replicates
[5] = proximal jejunum, mean of 3 dose replicates
[6] = intestinal fluid (distal duodenum)
[7] = intestinal fluid (proximal jejunum)
[8] = intestinal fluid, distal duodenum
[9] = intestinal fluid, proximal jejunum

With GGVLVQPG [LA, Larazotide acetate] the “MRTlast, mean residence time from time zero to the last time point” value (“MRTlast, mean residence time” for short) ([1]; distal duodenum, dose replicate # 1) was 1.58 h, the “MRTlast, mean residence time” value ([1]; distal duodenum, dose replicate # 2) was 1.42 h and the “MRTlast, mean residence time” value ([1]; distal duodenum, dose replicate # 3) was 1.65 h. The “AUClast, area under the curve from time zero to the last time point” value [1, 4] was 0.77 µg·h/mL, the “Cmax, maximum concentration” value [1, 4] was 0.53 µg/mL and the “HLλz, elimination half life” value [1, 4] was 0.65 h. The “MRTlast, mean residence time” value [1, 4] was 1.55 h, the “Tmax, time to the maximum concentration” value [1, 4] was 1 h and the “Λz, elimination rate constant” value [1, 4] was 1.14 h⁻¹. The “MRTlast, mean residence time” value ([1]; proximal jejunum, dose replicate # 1) was 1.31 h, the “MRTlast, mean residence time” value ([1]; proximal jejunum, dose replicate # 2) was 1.26 h and the “MRTlast, mean residence time” value ([1]; proximal jejunum, dose replicate # 3) was 1.53 h. For the same substance, the “AUClast, area under the curve from time zero to the last time point” value [1, 5] was 0.91 µg·h/mL, the “Cmax, maximum concentration” value [1, 5] was 0.78 µg/mL and the “HLλz, elimination half life” value [1, 5] was 0.76 h. The “MRTlast, mean residence time” value [1, 5] was 1.37 h, the “Tmax, time to the maximum concentration” value [1, 5] was 1 h and the “Λz, elimination rate constant” value [1, 5] was 1.0 h⁻¹. For the same substance, the “Concentrations in human plasma” value ([2]; all groups administered 0.25, 1, 4 and 8 mg LA, below the LOQ) was under 0.0005 µg/mL, the Plasma concentrations ([2]; human plasma, oral LA (12mg), HPLC-MS/MS, all below LLOQ) was under 0.0005 µg/mL and the level at time molar at 1 h [3, 6] was 0.74 ± 0.3 µM. The level at time molar at 2 h [3, 6] was 0.27 ± 0.14 µM, the level at time molar at 3 h [3, 6] was 0.12 ± 0.09 µM and the level at time molar at 4 h [3, 6] was 0.03 ± 0.01 µM. The level at time molar at 1 h [3, 7] was 1.1 ± 0.48 µM, the level at time molar at 2 h [3, 7] was 0.25 ± 0.13 µM and the level at time molar at 3 h [3, 7] was 0.09 ± 0.1 µM. It also gave a level at time molar at 4 h [3, 7] of 0.03 ± 0.04 µM, a level at time molar at 1 h [3, 8] of 0.74 µM and a level at time molar at 2 h [3, 8] of 0.27 µM. It also gave a level at time molar at 3 h [3, 8] of 0.12 µM, a level at time molar at 4 h [3, 8] of 0.03 µM and a level at time molar at 1 h ([3]; intestinal fluid, distal duodenum, LA concentration (µM), oral 1 mg LA human clinical formulation, 1h, case number 1, single measurement) of 0.32 µM. It also gave a level at time molar at 1 h ([3]; intestinal fluid, distal duodenum, LA concentration (µM), oral 1 mg LA human clinical formulation, 1h, case number 2, single measurement) of 0.98 µM, a level at time molar at 1 h ([3]; intestinal fluid, distal duodenum, LA concentration (µM), oral 1 mg LA human clinical formulation, 1h, case number 3, single measurement) of 0.93 µM and a level at time molar at 2 h ([3]; intestinal fluid, distal duodenum, LA concentration (µM), oral 1 mg LA human clinical formulation, 2h, case number 1, single measurement) of 0.14 µM. For the same substance, the level at time molar at 2 h ([3]; intestinal fluid, distal duodenum, LA concentration (µM), oral 1 mg LA human clinical formulation, 2h, case number 2, single measurement) was 0.21 µM, the level at time molar at 2 h ([3]; intestinal fluid, distal duodenum, LA concentration (µM), oral 1 mg LA human clinical formulation, 2h, case number 3, single measurement) was 0.47 µM and the level at time molar at 3 h ([3]; intestinal fluid, distal duodenum, LA concentration (µM), oral 1 mg LA human clinical formulation, 3h, case number 1, single measurement) was 0.03 µM. It also gave a level at time molar at 3 h ([3]; intestinal fluid, distal duodenum, LA concentration (µM), oral 1 mg LA human clinical formulation, 3h, case number 2, single measurement) of 0.09 µM, a level at time molar at 3 h ([3]; intestinal fluid, distal duodenum, LA concentration (µM), oral 1 mg LA human clinical formulation, 3h, case number 3, single measurement) of 0.25 µM and a level at time molar at 4 h ([3]; intestinal fluid, distal duodenum, LA concentration (µM), oral 1 mg LA human clinical formulation, 4h, case number 1, single measurement) of 0.03 µM. It also gave a level at time molar at 4 h ([3]; intestinal fluid, distal duodenum, LA concentration (µM), oral 1 mg LA human clinical formulation, 4h, case number 2, single measurement) of 0.02 µM, a level at time molar at 4 h ([3]; intestinal fluid, distal duodenum, LA concentration (µM), oral 1 mg LA human clinical formulation, 4h, case number 3, single measurement) of 0.03 µM and a level at time molar at 1 h [3, 9] of 1.1 µM. It also gave a level at time molar at 2 h [3, 9] of 0.25 µM, a level at time molar at 3 h [3, 9] of 0.09 µM and a level at time molar at 4 h [3, 9] of 0.03 µM. It also gave a level at time molar at 1 h ([3]; intestinal fluid, proximal jejunum, LA concentration (µM), oral 1 mg LA human clinical formulation, 1h, case number 1, single measurement) of 0.65 µM, a level at time molar at 1 h ([3]; intestinal fluid, proximal jejunum, LA concentration (µM), oral 1 mg LA human clinical formulation, 1h, case number 2, single measurement) of 1.76 µM and a level at time molar at 1 h ([3]; intestinal fluid, proximal jejunum, LA concentration (µM), oral 1 mg LA human clinical formulation, 1h, case number 3, single measurement) of 0.88 µM. The level at time molar at 2 h ([3]; intestinal fluid, proximal jejunum, LA concentration (µM), oral 1 mg LA human clinical formulation, 2h, case number 1, single measurement) was 0.13 µM, the level at time molar at 2 h ([3]; intestinal fluid, proximal jejunum, LA concentration (µM), oral 1 mg LA human clinical formulation, 2h, case number 2, single measurement) was 0.18 µM and the level at time molar at 2 h ([3]; intestinal fluid, proximal jejunum, LA concentration (µM), oral 1 mg LA human clinical formulation, 2h, case number 3, single measurement) was 0.43 µM. For the same substance, the level at time molar at 3 h ([3]; intestinal fluid, proximal jejunum, LA concentration (µM), oral 1 mg LA human clinical formulation, 3h, case number 1, single measurement) was 0.04 µM, the level at time molar at 3 h ([3]; intestinal fluid, proximal jejunum, LA concentration (µM), oral 1 mg LA human clinical formulation, 3h, case number 3, single measurement) was 0.22 µM and the level at time molar at 4 h ([3]; intestinal fluid, proximal jejunum, LA concentration (µM), oral 1 mg LA human clinical formulation, 4h, case number 2, single measurement) was 0.09 µM. The “Continued presence of LA, concentration in proximal jejunum” value ([3]; fasted, oral 1 mg LA clinical formulation, proximal jejunum, 2–4 hours, range of individual samples) was 0.00 to 0.43 µM, the “LA concentration” value ([3]; oral 1 mg LA human clinical formulation, proximal jejunum, 0h, case number 2, single measurement) was 0.00 µM and the “LA concentration” value ([3]; oral 1 mg LA human clinical formulation, proximal jejunum, 0h, case number 3, single measurement) was 0.00 µM. For the same substance, the “LA concentration” value ([3]; oral 1 mg LA human clinical formulation, proximal jejunum, 3h, case number 2, single measurement, below LOD reported as zero) was 0.00 µM, the “LA concentration” value ([3]; oral 1 mg LA human clinical formulation, proximal jejunum, 4h, case number 1, single measurement, below LOD reported as zero) was 0.00 µM and the “LA concentration” value ([3]; oral 1 mg LA human clinical formulation, proximal jejunum, 4h, case number 3, single measurement, below LOD reported as zero) was 0.00 µM.
With H-GGVLVQP-OH [Fragment 3] the “Concentration of LA fragments in duodenal and jejunal samples” value (from here on “Concentration of LA fragments”) [3] was under 0.15 µM.
For H-GVLVQPG-OH [Fragment 1], the “Concentration of LA fragments” value [3] was under 0.15 µM.
For H-VLVQPG-OH [Fragment 2], the “Concentration of LA fragments” value [3] was under 0.16 µM.
With H-Val-Leu-Val-Gln-Pro-OH [Fragment 4] the “Concentration of LA fragments” value [3] was under 0.17 µM.
